A word on the Ki: it is the dissociation constant of the complex between target and ligand, obtained from inhibition or displacement.

For this test, the target named is T1, NR2B receptor (Rattus norvegicus, UniProt P35439+Q00960).
T1 construct: Membranes were prepared by homogenization of forebrain of male CD rats; from tissue; host or cells: rat forebrain P2 membrane
As to the kind of experiment: NR2B Binding Assay (competition with [3H]-1-[(1S*,2S*)-2-hydroxy-2-(4-hydroxyphenyl)-1-methylethyl]-4-phenylpiperidin-4-ol on P2 membrane). The note with it: forebrain P2 membrane of male CD rats, 5 nM radioligand, 60 minutes at room temperature, pH7.4; read-out: Ki value with respect to binding affinity for the NR2B receptor. How it is done:
The activity of the bicyclic amide compounds of the present invention, as NR2B antagonists, is determined by their ability to inhibit the binding of NR2B subunit at its receptor sites employing radioactive ligands.
The NR2B antagonist activity of the bicyclic amide compounds is evaluated by using the standard assay procedure described in, for example, J. Pharmacol., 331, pp117-126, 1997. This method essentially involves determining the concentration of the individual compound required to reduce the amount of radiolabelled NR2B ligands by 50% at their receptor sites, thereby affording characteristic IC50 values for each compound tested. More specifically, the assay is carried out as follows. […]
For the saturation assay, receptor saturation was determined by incubating [^3H]-1-[(1S*,2S*)-2-hydroxy-2-(4-hydroxyphenyl)-1-methylethyl]-4-phenylpiperidin-4-ol and 50 μg protein of P2 membrane for 60 minutes at room temperature in a final 100 μl of incubation buffer (50 mM Tris HCl, pH7.4). Total and non-specific bindings (in the presence of 10 μM of unlabeled 1-[(1S*,2S*)-2-hydroxy-2-(4-hydroxyphenyl)-1-methylethyl]-4-phenylpiperidin-4-ol) were determined in a range of [3H]-1-[(1S*,2S*)-2-hydroxy-2-(4-hydroxyphenyl)-1-methylethyl]-4-phenylpiperidin-4-ol concentrations (0.625 nM to 60 nM). […]

T1 sequence (Q00960 27-1482, other chains not shown): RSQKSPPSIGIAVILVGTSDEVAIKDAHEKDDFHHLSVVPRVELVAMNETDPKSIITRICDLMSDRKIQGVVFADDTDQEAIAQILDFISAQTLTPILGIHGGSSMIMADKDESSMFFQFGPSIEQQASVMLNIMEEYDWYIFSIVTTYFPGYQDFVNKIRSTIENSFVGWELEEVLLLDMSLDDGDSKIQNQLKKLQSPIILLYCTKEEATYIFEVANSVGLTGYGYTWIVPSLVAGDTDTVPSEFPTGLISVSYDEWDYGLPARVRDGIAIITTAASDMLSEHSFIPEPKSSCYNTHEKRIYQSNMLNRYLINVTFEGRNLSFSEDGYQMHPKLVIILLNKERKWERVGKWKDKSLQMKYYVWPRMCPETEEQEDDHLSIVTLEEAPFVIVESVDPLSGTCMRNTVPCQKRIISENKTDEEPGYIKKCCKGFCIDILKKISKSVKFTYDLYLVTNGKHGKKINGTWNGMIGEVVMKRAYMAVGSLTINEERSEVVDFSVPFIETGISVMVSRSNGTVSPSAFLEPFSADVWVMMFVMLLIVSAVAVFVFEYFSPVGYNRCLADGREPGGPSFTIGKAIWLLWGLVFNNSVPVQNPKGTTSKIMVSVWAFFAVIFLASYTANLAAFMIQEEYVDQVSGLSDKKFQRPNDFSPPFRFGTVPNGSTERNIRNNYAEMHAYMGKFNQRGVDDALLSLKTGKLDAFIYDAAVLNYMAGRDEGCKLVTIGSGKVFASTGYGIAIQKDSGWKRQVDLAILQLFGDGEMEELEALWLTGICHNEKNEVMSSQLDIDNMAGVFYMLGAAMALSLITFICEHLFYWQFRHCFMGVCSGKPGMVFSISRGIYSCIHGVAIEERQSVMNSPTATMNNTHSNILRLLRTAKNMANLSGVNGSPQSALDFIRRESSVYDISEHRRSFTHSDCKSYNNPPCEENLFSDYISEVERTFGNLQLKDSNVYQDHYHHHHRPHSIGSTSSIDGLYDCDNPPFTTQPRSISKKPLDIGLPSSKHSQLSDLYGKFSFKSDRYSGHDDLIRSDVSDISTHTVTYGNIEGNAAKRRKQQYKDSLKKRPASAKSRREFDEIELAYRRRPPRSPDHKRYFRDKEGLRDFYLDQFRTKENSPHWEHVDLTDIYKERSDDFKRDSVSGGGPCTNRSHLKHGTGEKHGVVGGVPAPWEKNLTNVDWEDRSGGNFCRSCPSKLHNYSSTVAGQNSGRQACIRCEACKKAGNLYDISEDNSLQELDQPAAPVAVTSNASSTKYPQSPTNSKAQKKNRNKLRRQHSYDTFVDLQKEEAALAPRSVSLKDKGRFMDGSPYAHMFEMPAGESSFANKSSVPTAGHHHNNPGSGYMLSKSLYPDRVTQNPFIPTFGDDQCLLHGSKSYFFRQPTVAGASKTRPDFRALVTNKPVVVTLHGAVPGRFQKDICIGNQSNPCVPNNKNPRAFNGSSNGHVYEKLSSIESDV

As for `O=C(NCc1ccc2[nH]c(Cc3ccccc3)cc2c1)c1ccc(O)cc1` [Example 8, N-[(2-benzyl-1H-indol-5-yl)methyl]-4-hydroxybenzamide], the inhibition constant Ki is 2 nM.
